Experimental findings from US11524966B1 (Valo Early Discovery, Inc., priority 2017, dated 2022) are described below.

pIC50: −log10 of the molar value.

For one test, the target named is T1, USP25 (USP25-His6, Boston Biochem E-546) (Homo sapiens, UniProt Q9UHP3).
T1 construct: His6; purchased Boston Biochem E-546
T1 sequence (Q9UHP3 1-1055): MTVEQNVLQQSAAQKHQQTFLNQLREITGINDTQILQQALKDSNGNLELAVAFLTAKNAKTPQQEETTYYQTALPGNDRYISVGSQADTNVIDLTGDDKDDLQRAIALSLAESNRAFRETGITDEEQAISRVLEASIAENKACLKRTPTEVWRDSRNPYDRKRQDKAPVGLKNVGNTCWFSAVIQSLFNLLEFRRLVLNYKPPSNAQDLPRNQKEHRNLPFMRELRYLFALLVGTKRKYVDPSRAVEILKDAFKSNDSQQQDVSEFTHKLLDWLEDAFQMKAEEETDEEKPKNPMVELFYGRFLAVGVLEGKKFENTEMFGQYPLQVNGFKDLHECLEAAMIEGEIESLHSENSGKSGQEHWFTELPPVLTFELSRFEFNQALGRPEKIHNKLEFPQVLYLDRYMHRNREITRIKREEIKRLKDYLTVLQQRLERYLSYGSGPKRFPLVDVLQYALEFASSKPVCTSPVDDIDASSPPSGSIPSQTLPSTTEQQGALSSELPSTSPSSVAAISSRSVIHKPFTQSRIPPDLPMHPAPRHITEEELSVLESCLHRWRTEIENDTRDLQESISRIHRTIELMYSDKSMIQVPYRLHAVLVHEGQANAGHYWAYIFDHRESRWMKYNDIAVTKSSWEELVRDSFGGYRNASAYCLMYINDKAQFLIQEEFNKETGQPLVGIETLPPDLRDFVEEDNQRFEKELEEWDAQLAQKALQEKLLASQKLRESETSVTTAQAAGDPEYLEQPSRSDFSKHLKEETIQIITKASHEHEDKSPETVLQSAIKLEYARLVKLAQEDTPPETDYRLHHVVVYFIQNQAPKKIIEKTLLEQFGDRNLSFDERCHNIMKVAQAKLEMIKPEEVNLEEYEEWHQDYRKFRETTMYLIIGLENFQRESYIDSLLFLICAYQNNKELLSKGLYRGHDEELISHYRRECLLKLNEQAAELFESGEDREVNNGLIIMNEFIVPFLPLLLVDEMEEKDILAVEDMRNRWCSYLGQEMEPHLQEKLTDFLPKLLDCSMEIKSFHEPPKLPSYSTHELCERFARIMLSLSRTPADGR
As to the kind of experiment: Ubiquitin-Rhodamine 110 Assay for USP25 Activity, Example A-2. Format: biochemical. Conditions: Ub-Rh110 assay, Example A-2; read-out: USP25 A-2 IC50 range. In short, it runs like this: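 USP25-His6 (75 pM) was preincubated with compound (10-point, 3-fold series, 25 μM to 1.3 nM) for 30 min in 20 mM Tris-HCl pH 8.0, 3 mM BME, 0.03% BGG, 0.01% Triton X-100. Ub-Rh110 (25 nM, <<Km) was then added for 45 min at room temperature, citric acid-stopped, and fluorescence read at 485/535 nm.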
In general, pIC50 refers to −log10 of the IC50, conventionally taken in molar units. For the molecule `Cc1nc2sc(C(=O)N[C@H]3COc4cc(N5CCNCC5)ccc4C3)c(N)c2s1` [Example 1-25, (R)-6-amino-2-methyl-N-(7-(piperazin-1-yl)chroman-3-yl)thieno[2,3-d]thiazole-5-carboxamide], the pIC50 is 5.70 to 6.70.

For `Cc1cc(C(F)(F)F)c2c(N)c(C(=O)N[C@H]3COc4cc(N5CC6CC(C5)N6)ccc4C3)sc2n1` [Example 2-21], the pIC50 was 6.70 to 7.30.

As for `Cc1nc2sc(C(=O)N[C@H]3COc4cc(N5CC6CC(C5)N6)ccc4C3)c(N)c2cc1F` [Example 2-15, N-((3R)-7-(3,6-diazabicyclo[3.1.1]heptan-3-yl)chroman-3-yl)-3-amino-5-fluoro-6-methylthieno[2,3-b]pyridine-2-carboxamide], the pIC50 was 6.70 to 7.30.

With `Cc1ccc2c(N)c(C(=O)N[C@@H]3COc4cc(N5CC6CC(C5)N6)ccc4C3)sc2n1` [Example 2-3, N-((3S)-7-(3,6-diazabicyclo[3.1.1]heptan-3-yl)chroman-3-yl)-3-amino-6-methylthieno[2,3-b]pyridine-2-carboxamide], the pIC50 was less than 5.70.

Consider `Cc1ccc2c(N)c(C(=O)N[C@H]3COc4cc(N5CC6CCC(C5)N6)ccc4C3)sc2n1` (single isomer, unassigned) [Example 1-3], for which the pIC50 is 7.30 to 9.00.

Turning to `Cc1ccc2c(N)c(C(=O)N[C@H]3COc4cc(N5CC6CC(C5)N6)ccc4C3)sc2n1` [Example 2-2, N-((3R)-7-(3,6-diazabicyclo[3.1.1]heptan-3-yl)chroman-3-yl)-3-amino-6-methylthieno[2,3-b]pyridine-2-carboxamide], the pIC50 is 6.70 to 7.30.

Consider `Cc1ccc2c(N)c(C(=O)N[C@H]3COc4cc(N5CCNC[C@H]5C)ccc4C3)sc2n1` [Example 2-5, 3-amino-6-methyl-N-((R)-7-((R)-2-methylpiperazin-1-yl)chroman-3-yl)thieno[2,3-b]pyridine-2-carboxamide], for which the pIC50 is 7.30 to 9.00.

As to `Cc1ccc2c(N)c(C(=O)N[C@H]3COc4cc(N5CC6CC(C5)N6)cc(F)c4C3)sc2n1` (single isomer, unassigned) [Example 1-42], the pIC50 was less than 5.70.

As for `Cc1ccc2c(N)c(C(=O)N[C@H]3COc4cc(N5CC6CNCC(C5)C6(F)F)c(C#N)cc4C3)sc2n1` [Example 2-33, 3-amino-N-((3R)-6-cyano-7-(9,9-difluoro-3,7-diazabicyclo[3.3.1]nonan-3-yl)chroman-3-yl)-6-methylthieno[2,3-b]pyridine-2-carboxamide], the pIC50 was 7.30 to 9.00.

On to `Cc1nc2sc(C(=O)N[C@H]3COc4cc(N5CCNCC5)ccc4C3)c(N)c2cc1F` (single isomer, unassigned) [Example 1-15], for which the pIC50 is 6.70 to 7.30.

For `Cc1ccc2c(N)c(C(=O)N[C@@H]3COc4cc(N5CCN[C@@H](C)[C@@H]5C)ccc4C3)sc2n1` (single isomer, unassigned) [Example 1-14], the pIC50 was 5.70 to 6.70.

For `Cc1ccc2c(N)c(C(=O)N[C@H]3COc4cc(N5CCN[C@H](C)C5)ccc4C3)sc2n1` [Example 2-9, 3-amino-6-methyl-N-((R)-7-((R)-3-methylpiperazin-1-yl)chroman-3-yl)thieno[2,3-b]pyridine-2-carboxamide], the pIC50 is 5.70 to 6.70.

For `CCn1ccc2cc(C(=O)N[C@H]3COc4cc(N5CC6CCCC(C5)N6)ccc4C3)nnc21` [Example 2-29, N-((3R)-7-(3,9-diazabicyclo[3.3.1]nonan-3-yl)chroman-3-yl)-7-ethyl-7H-pyrrolo[2,3-c]pyridazine-3-carboxamide], the pIC50 was 5.70 to 6.70.

`Cc1cnc2c(N)c(C(=O)N[C@@H]3CCc4c(ccc(N5CCNCC5)c4C)C3)sc2n1` (single isomer, unassigned) [Example 2-37]: the negative logarithm of the IC50 (pIC50) was 5.70 to 6.70.

Consider `Cc1nc2sc(C(=O)N[C@H]3COc4cc(N5CC6CC(C5)N6)ccc4C3)c(N)c2s1` [Example 2-26, N-((3R)-7-(3,6-diazabicyclo[3.1.1]heptan-3-yl)chroman-3-yl)-6-amino-2-methylthieno[2,3-d]thiazole-5-carboxamide], for which the pIC50 was 5.70 to 6.70.

With `CCn1ccc2cc(C(=O)N[C@H]3COc4cc(N5CC6CCC(C5)N6)ccc4C3)cnc21` (single isomer, unassigned) [Example 1-28], the pIC50 is 6.70 to 7.30.

For the molecule `Cc1nc2sc(C(=O)N[C@H]3COc4cc(N5CC6CCC(C5)N6)ccc4C3)c(N)c2s1` [Example 1-23, N-((3R)-7-(3,8-diazabicyclo[3.2.1]octan-3-yl)chroman-3-yl)-6-amino-2-methylthieno[2,3-d]thiazole-5-carboxamide], the pIC50 is 5.70 to 6.70.

On to `Cc1ccc2c(N)c(C(=O)N[C@H]3COc4cc(N5CC6CCCC(C5)N6)ccc4C3)sc2n1` (single isomer, unassigned) [Example 1-5], for which the pIC50 is 7.30 to 9.00.

Take `CO[C@@H]1CN(c2ccc3c(c2)OC[C@H](NC(=O)c2sc4nc(C)ccc4c2N)C3)C[C@H]1N` (single isomer, unassigned) [Example 3-2]: the pIC50 is 5.70 to 6.70.

Regarding `Cc1cnc2c(N)c(C(=O)N[C@H]3COc4cc(N5CCNCC5)ccc4C3)sc2n1` (single isomer, unassigned) [Example 1-21], the pIC50 was 5.70 to 6.70.

In the case of `CCn1ccc2cc(C(=O)N[C@H]3COc4cc(N5CC6CNCC(C5)C6(F)F)ccc4C3)cnc21` [Example 2-30, N-((3R)-7-(9,9-difluoro-3,7-diazabicyclo[3.3.1]nonan-3-yl)chroman-3-yl)-1-ethyl-1H-pyrrolo[2,3-b]pyridine-5-carboxamide], the pIC50 is 7.30 to 9.00.

As to `Cc1ccc2c(N)c(C(=O)N[C@@H]3COc4cc(N5CCNCC5)c(OC(F)(F)F)cc4C3)sc2n1` (single isomer, unassigned) [Example 1-32], the pIC50 is 5.70 to 6.70.

For the molecule `Cc1cnc2c(N)c(C(=O)N[C@@H]3COc4cc(N5CCNCC5)ccc4C3)sc2n1` (single isomer, unassigned) [Example 1-22], the pIC50 is less than 5.70.

The test is the same for the next values; noted with them: Ubiquitin-Rhodamine 110 assay, Example A-2; read-out: USP25 A-2 IC50 range.
With `Cc1cnc2c(N)c(C(=O)N[C@H]3CCc4nc(N5CCNCC5)ccc4C3)sc2n1` [Example 23-6, 7-amino-3-methyl-N-[(6S)-2-(piperazin-1-yl)-5,6,7,8-tetrahydroquinolin-6-yl]thieno[2,3-b]pyrazine-6-carboxamide], the pIC50 was 5.70 to 6.70.
